Among the data in PubChem BioAssay (NCI) are GI50 and TGI values, retold here.

Values joined by “and” are separate entries in the source; they are usually repeats but may differ in a detail not shown here. Equal entries are not always repeated.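 The compound was tested at five concentrations on cells cultured in 96-well plates, with a 48-hour exposure period. GI50: concentration for 50% inhibition of growth. TGI: total growth inhibition.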 Some results are limits rather than exact numbers.

Among the test systems are SNB-19 CNS; RPMI-8226 leukemia; SF-539 CNS; T-47D breast; A498 renal; PC-3 prostate; SK-MEL-28 melanoma; MALME-3M melanoma; MOLT-4 leukemia; SF-295 CNS.
Holding throughout (assay): growth of human tumour cells (NCI), 48 h

Regarding `ClCc1cccc(Cn2cnc3c(NC45CC6CC(CC(C6)C4)C5)ncnc32)c1`, the GI50 was 17.2 µM in the experiment on SNB-19 CNS; 10.8 µM with RPMI-8226 leukemia; 16.9 µM with SF-539 CNS; 15.1 µM in the experiment on T-47D breast; 15.4 µM in the experiment with A498 renal; 19 µM in the experiment on PC-3 prostate. Moreover, the GI50 in the experiment with SK-MEL-28 melanoma was 25 µM; in the experiment on MALME-3M melanoma, 14.6 µM; in the experiment with MOLT-4 leukemia it was 9.92 µM; with SF-295 CNS, 15.9 µM. Also, the TGI was 44.2 µM in the experiment on SNB-19 CNS; above 53.2 µM in the experiment on RPMI-8226 leukemia; 32.4 µM with SF-539 CNS; 36.6 µM in the experiment on T-47D breast; 31.7 µM with A498 renal; 40.2 µM with PC-3 prostate. Also, the TGI was above 78.7 µM in the experiment with SK-MEL-28 melanoma, 32.4 µM with MALME-3M melanoma, 36 µM in the experiment with MOLT-4 leukemia and 33.3 µM in the experiment with SF-295 CNS.

For `CC(=O)N[C@H]1C=C[C@@H]2/C=C(C)/C=C/[C@@H](C)[C@H]([C@H](C)[C@H](O)[C@@H](C)NC(C)=O)OC(=O)/C=C/C=C(C)\C=C\[C@]2(C)C1`, the GI50 was 0.256 µM and 0.072 µM in the experiment on SNB-19 CNS; 0.0428 µM and 0.0045 µM in the experiment with RPMI-8226 leukemia; 0.0107 µM and 0.0045 µM with SF-539 CNS; 0.0131 µM and 0.0045 µM with T-47D breast; 0.0045 µM in the experiment on A498 renal; 0.0202 µM and 0.0045 µM in the experiment on PC-3 prostate. The GI50 in the experiment on SK-MEL-28 melanoma is 0.0306 µM and 0.00647 µM; in the experiment with MOLT-4 leukemia, 11 µM; in the experiment on SF-295 CNS, 0.00449 µM and 0.0045 µM. For the same molecule, the TGI in the experiment with SNB-19 CNS is 4.65 µM and > 45 µM; in the experiment with RPMI-8226 leukemia, 4.65 µM and 13.1 µM; in the experiment with SF-539 CNS, 4.65 µM and 24.6 µM; in the experiment on T-47D breast it was 4.65 µM and 5.18 µM; with A498 renal, 0.0181 µM; in the experiment with PC-3 prostate it was 4.65 µM and > 45 µM. Besides, the TGI in the experiment with SK-MEL-28 melanoma was 4.65 µM and > 45 µM; with MALME-3M melanoma, 4.65 µM and 24.7 µM; in the experiment with MOLT-4 leukemia, above 45 µM.

As to `CC(=O)C(=[N+]=[N-])C(=O)NCC#N`, the TGI with SNB-19 CNS, in the experiment on RPMI-8226 leukemia, in the experiment on SF-539 CNS, in the experiment on T-47D breast, in the experiment on A498 renal and in the experiment on PC-3 prostate was above 10 µM throughout. Moreover, the TGI with SK-MEL-28 melanoma, in the experiment on MALME-3M melanoma, with MOLT-4 leukemia and in the experiment on SF-295 CNS was above 10 µM each time.

Turning to `CCN1CCN(C(=O)[C@]23CC[C@@H](C)[C@H](C)[C@@H]2C2=CC[C@@H]4[C@@]5(C)C/C(=C/c6ccncc6)C(=O)C(C)(C)[C@@H]5CC[C@@]4(C)[C@]2(C)CC3)CC1`, the GI50 is 1.58 µM in the experiment with SNB-19 CNS; 1.88 µM in the experiment with RPMI-8226 leukemia; 1.73 µM with SF-539 CNS; 1.56 µM in the experiment with T-47D breast; 1.49 µM in the experiment with A498 renal; 1.34 µM with PC-3 prostate. In addition, the GI50 in the experiment with SK-MEL-28 melanoma is 1.65 µM; in the experiment with MALME-3M melanoma, 1.5 µM; with MOLT-4 leukemia it was 1.78 µM; in the experiment with SF-295 CNS, 1.55 µM. Further, the TGI was determined as 2.99 µM in the experiment on SNB-19 CNS; 5.91 µM with RPMI-8226 leukemia; 3.11 µM in the experiment with SF-539 CNS; 3.49 µM in the experiment with T-47D breast; 2.9 µM in the experiment on A498 renal; 3.01 µM with PC-3 prostate. For the same molecule, the TGI with SK-MEL-28 melanoma was 3.03 µM; with MALME-3M melanoma it was 2.83 µM; with MOLT-4 leukemia, 4.57 µM; in the experiment with SF-295 CNS it was 2.88 µM.

Consider `COc1ccc(/C=C2\CCC(CNc3cc(C)on3)C2=O)cc1` (stereo not drawn), for which the TGI is above 95.5 µM in the experiment with SNB-19 CNS; above 100 µM in the experiment with RPMI-8226 leukemia; above 100 µM with SF-539 CNS; above 91.1 µM in the experiment with T-47D breast; above 100 µM with A498 renal; above 100 µM in the experiment with PC-3 prostate. The TGI with SK-MEL-28 melanoma, in the experiment with MALME-3M melanoma, in the experiment with MOLT-4 leukemia and in the experiment on SF-295 CNS was above 100 µM in each case.

As to `COc1cc(Nc2nccc(Nc3ccc4c(C)[nH]nc4c3)n2)cc(OC)c1OC`, the GI50 in the experiment on SNB-19 CNS was 4.91 µM; in the experiment with RPMI-8226 leukemia, 5.21 µM; in the experiment on SF-539 CNS, 1.72 µM; with T-47D breast, 1.44 µM; with A498 renal, 0.253 µM; in the experiment with PC-3 prostate it was 2.33 µM. In addition, the GI50 in the experiment with SK-MEL-28 melanoma was 3.28 µM; in the experiment on MALME-3M melanoma it was 1.4 µM; with MOLT-4 leukemia, 4.87 µM; with SF-295 CNS, 2.66 µM. Also, the TGI is 19.9 µM in the experiment with SNB-19 CNS; 13.2 µM with RPMI-8226 leukemia; 6.11 µM in the experiment with SF-539 CNS; 7.46 µM in the experiment on T-47D breast; 1.94 µM with A498 renal; above 20.5 µM in the experiment on PC-3 prostate. The TGI in the experiment on SK-MEL-28 melanoma is 14.4 µM; with MALME-3M melanoma it was 10.2 µM; with MOLT-4 leukemia, 19.2 µM; in the experiment with SF-295 CNS, 9.77 µM.

For `O=c1c2c(nc3n1CCS3)[nH]c1ccccc12`, the GI50 was above 100 µM in the experiment with SNB-19 CNS; above 100 µM in the experiment on RPMI-8226 leukemia; above 100 µM in the experiment with SF-539 CNS; above 100 µM in the experiment with T-47D breast; 89.5 µM in the experiment with A498 renal; above 100 µM in the experiment on PC-3 prostate. The GI50 in the experiment on SK-MEL-28 melanoma is 90.3 µM; in the experiment on MALME-3M melanoma, above 100 µM; in the experiment on MOLT-4 leukemia, above 100 µM; with SF-295 CNS, above 100 µM. In addition, the TGI with SNB-19 CNS, in the experiment with RPMI-8226 leukemia, in the experiment with SF-539 CNS, in the experiment on T-47D breast, with A498 renal and with PC-3 prostate was above 100 µM in each case. Also, the TGI in the experiment with SK-MEL-28 melanoma, in the experiment with MALME-3M melanoma, in the experiment with MOLT-4 leukemia and in the experiment on SF-295 CNS was above 100 µM in each case.
